Tests used:
Assay type in all cases: in vivo
[1] = test system: green peach aphid (Myzus persicae); assay: Insecticidal test for green peach aphid in foliar spray assay on cabbage seedlings
In short: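 Cabbage seedlings carrying 20-50 aphids (adults and nymphs) were sprayed to runoff with compound at 200 ppm in acetone/methanol diluted in 0.025% Tween 20, with four pots per treatment. After three days at about 25 °C and 40% RH, live aphids were counted. Percent control was Abbott-corrected against solvent-check plants.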

[2] = test system: corn earworm (CEW; Helicoverpa zea: Lepidoptera); assay: Insecticidal test for corn earworm, 128-well diet tray assay
In short: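 Second-instar larvae, three to five per well, placed on artificial diet treated with 50 μg/cm^2 compound applied in 90:10 acetone-water and dried. Held six days at 25° C., 14:10 light-dark. Percent mortality scored per well and averaged over eight wells.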

[3] = test system: beet armyworm (BAW; Spodoptera exigua: Lepidoptera); assay: Insecticidal test for beet armyworm, 128-well diet tray assay
In short: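 Three to five second-instar larvae per well fed on artificial diet surface-treated with 50 μg/cm^2 compound (applied in 90:10 acetone-water, dried). Trays were held six days at 25 °C, 14:10 light-dark. Percent mortality was averaged across eight wells.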

SMILES	% Mortality GPA 200 ppm [1]	% Mortality CEW 50 μg/cm^2 [2]	% Mortality BAW 50 μg/cm^2 [3]
CC(OC(=O)Nc1ccc(-c2ncn(-c3ccc(OC(F)(F)F)cc3)n2)cc1)c1ccccc1C(F)(F)F (stereo not drawn) [Compound 69]	B (Less than 80)	A (50-100)	A (50-100)
COc1ccc(CC(C)OC(=O)Nc2ccc(-c3ncn(-c4ccc(OC(F)(F)F)cc4)n3)cc2)cc1 (stereo not drawn) [Compound 22]	B (Less than 80)	A (50-100)	A (50-100)
CC(OC(=O)Nc1ccc(-c2ncn(-c3ccc(OC(F)(F)F)cc3)n2)cc1)c1ccc(Cl)cn1 (stereo not drawn) [Compound 118]	B (Less than 80)	A (50-100)	A (50-100)
C#CC(C)(C)OC(=O)Nc1ccc(-c2ncn(-c3ccc(OC(F)(F)F)cc3)n2)cc1 [Compound 12, {4-[1-(4-trifluoromethoxyphenyl)-1H-[1,2,4]triazol-3-yl]-phenyl}-carbamic acid 1,1-dimethyl-prop-2-ynyl ester]	B (Less than 80)	A (50-100)	A (50-100)
CC(OC(=O)Nc1ccc(-c2ncn(-c3ccc(OC(F)(F)F)cc3)n2)cc1)c1ccc(C(C)(C)C)cc1 (stereo not drawn) [Compound 40]	B (Less than 80)	A (50-100)	A (50-100)
CC(OC(=O)Nc1ccc(-c2ncn(-c3ccc(C(F)(F)F)cc3)n2)cc1)c1ccc(C(F)(F)F)cc1 (stereo not drawn) [Compound 27, 1-(4-(trifluoromethyl)phenyl)ethyl 4-(1-(4-(trifluoromethyl)phenyl)-1H-1,2,4-triazol-3-yl)-phenylcarbamate]	B (Less than 80)	A (50-100)	A (50-100)
CC(OC(=O)Nc1ccc(-c2ncn(-c3ccc(OC(F)(F)F)cc3)n2)cc1)c1ccc(C#N)cc1 (stereo not drawn) [Compound 45]	B (Less than 80)	A (50-100)	A (50-100)
CC(OC(=O)Nc1ccc(-c2ncn(-c3ccc(OC(F)(F)C(F)(F)F)cc3)n2)cc1)c1ccc(C(F)(F)F)nc1 (stereo not drawn) [Compound 33]	B (Less than 80)	A (50-100)	A (50-100)
CC(OC(=O)Nc1ccc(-c2ncn(-c3ccc(OC(F)(F)F)cc3)n2)cc1)c1ccncc1 (stereo not drawn) [Compound 48]	B (Less than 80)	A (50-100)	A (50-100)
Cc1ccc2c(c1)CC(C)C(OC(=O)Nc1ccc(-c3ncn(-c4ccc(OC(F)(F)F)cc4)n3)cc1)O2 (stereo not drawn) [Compound 94]	B (Less than 80)	A (50-100)	A (50-100)
CCCCCC(CC)OC(=O)Nc1ccc(-c2ncn(-c3ccc(OC(F)(F)F)cc3)n2)cc1 (stereo not drawn) [Compound 101]	B (Less than 80)	A (50-100)	A (50-100)
COCC(C)(C)OC(=O)Nc1ccc(-c2ncn(-c3ccc(OC(F)(F)F)cc3)n2)cc1 [Compound 5]	B (Less than 80)	A (50-100)	A (50-100)
CCOC(=O)C#CC(C)(C)OC(=O)Nc1ccc(-c2ncn(-c3ccc(OC(F)(F)F)cc3)n2)cc1 [Compound 23, 4-methyl-4-{4-[1-(4-trifluoromethoxyphenyl)-1H-[1,2,4]triazol-3-yl]-phenylcarbamoyloxy}-pent-2-ynoic acid ethyl ester]	B (Less than 80)	B (Less than 50)	B (Less than 50)
Cc1ccc(OC(=O)Nc2ccc(-c3ncn(-c4ccc(OC(F)(F)F)cc4)n3)cc2)cn1 [Compound 123]	B (Less than 80)	B (Less than 50)	B (Less than 50)
O=C(Nc1ccc(-c2ncn(-c3ccc(OC(F)(F)F)cc3)n2)cc1)OC(c1ccccc1)c1ccc(C(F)(F)F)cc1 (stereo not drawn) [Compound 43]	B (Less than 80)	A (50-100)	A (50-100)
CC(OC(=O)Nc1ccc(-c2ncn(-c3ccc(OC(F)(F)F)cc3)n2)cc1)c1ccc(F)cn1 (stereo not drawn) [Compound 117]	B (Less than 80)	A (50-100)	A (50-100)
CC(OC(=O)Nc1ccc(-c2ncn(-c3ccc(OC(F)(F)F)cc3)n2)cc1)c1ccc(C(F)(F)F)nc1 (stereo not drawn) [Compound 41]	B (Less than 80)	A (50-100)	A (50-100)
CC(OC(=O)Nc1ccc(-c2ncn(-c3ccc(OC(F)(F)F)cc3)n2)cc1)c1ccc(OC(F)(F)F)cc1 (stereo not drawn) [Compound 64]	B (Less than 80)	A (50-100)	A (50-100)

SMILES	% Mortality GPA 200 ppm [1]	% Mortality CEW 50 μg/cm^2 [2]	% Mortality BAW 50 μg/cm^2 [3]
C=CC(OC(=O)Nc1ccc(-c2ncn(-c3ccc(OC(F)(F)F)cc3)n2)cc1)c1ccccc1 (stereo not drawn) [Compound 70]	B (Less than 80)	A (50-100)	A (50-100)
CC(OC(=O)Nc1ccc(-c2ncn(-c3ccc(OC(F)(F)F)cc3)n2)cc1)c1c(Cl)cccc1Cl (stereo not drawn) [Compound 73]	B (Less than 80)	A (50-100)	A (50-100)
CC(OC(=O)Nc1ccc(-c2ncn(-c3ccc(OC(F)(F)F)cc3)n2)cc1)c1ccc(Cl)nc1 (stereo not drawn) [Compound 56]	B (Less than 80)	A (50-100)	A (50-100)
CC(C)CC(OC(=O)Nc1ccc(-c2ncn(-c3ccc(OC(F)(F)F)cc3)n2)cc1)c1ccccc1 (stereo not drawn) [Compound 78]	B (Less than 80)	A (50-100)	A (50-100)
CC(OC(=O)Nc1ccc(-c2ncn(-c3ccc(OC(F)(F)F)cc3)n2)cc1)c1ccccn1 (stereo not drawn) [Compound 46]	B (Less than 80)	A (50-100)	A (50-100)
COCCOCC(C)(C)OC(=O)Nc1ccc(-c2ncn(-c3ccc(OC(F)(F)F)cc3)n2)cc1 [Compound 18]	B (Less than 80)	A (50-100)	A (50-100)
CCC(OC(=O)Nc1ccc(-c2ncn(-c3ccc(OC(F)(F)F)cc3)n2)cc1)c1ccccc1 (stereo not drawn) [Compound 85]	B (Less than 80)	A (50-100)	A (50-100)
CCC(OC(=O)Nc1ccc(-c2ncn(-c3ccc(OC(F)(F)F)cc3)n2)cc1)c1ccc(F)cc1 (stereo not drawn) [Compound 79]	B (Less than 80)	A (50-100)	A (50-100)
Cc1ccc(C(C)OC(=O)Nc2ccc(-c3ncn(-c4ccc(OC(F)(F)F)cc4)n3)cc2)cn1 (stereo not drawn) [Compound 47]	B (Less than 80)	A (50-100)	A (50-100)
Cc1ccccc1C(C)OC(=O)Nc1ccc(-c2ncn(-c3ccc(OC(F)(F)F)cc3)n2)cc1 (stereo not drawn) [Compound 93]	B (Less than 80)	A (50-100)	A (50-100)
CC(OC(=O)Nc1ccc(-c2ncn(-c3ccc(OC(F)(F)F)cc3)n2)cc1)C(F)(F)C(F)(F)F (stereo not drawn) [Compound 24, {4-[1-(4-trifluoromethoxyphenyl)-1H-[1,2,4]triazol-3-yl]phenyl}-carbamic acid 2,2,3,3,3-pentafluoro-1-methyl-propyl ester]	B (Less than 80)	A (50-100)	A (50-100)
CCOC(=O)C(C)(C)OC(=O)Nc1ccc(-c2ncn(-c3ccc(OC(F)(F)F)cc3)n2)cc1 [Compound 20]	B (Less than 80)	A (50-100)	A (50-100)
COC(=O)Nc1ccc(-c2ncn(-c3ccc(OC(F)(F)C(F)(F)F)cc3)n2)cc1 [Compound 135, methyl 4-(1-(4-(perfluoroethoxy)phenyl)-1H-1,2,4-triazol-3-yl)phenylcarbamate]	B (Less than 80)	A (50-100)	A (50-100)
CO[C@@H]1O[C@@H](C)[C@H](OC)[C@@H](OC(=O)Nc2ccc(-c3ncn(-c4ccc(OC(F)(F)F)cc4)n3)cc2)[C@H]1OC [Compound 2]	B (Less than 80)	B (Less than 50)	A (50-100)
CC(OC(=O)Nc1ccc(-c2ncn(-c3ccc(C(F)(F)F)cc3)n2)cc1)c1ccc(C(F)(F)F)nc1 (stereo not drawn) [Compound 28]	B (Less than 80)	A (50-100)	A (50-100)
CCCC(C)(C)OC(=O)Nc1ccc(-c2ncn(-c3ccc(OC(F)(F)F)cc3)n2)cc1 [Compound 6]	B (Less than 80)	B (Less than 50)	A (50-100)
CCOC(=O)c1csc(C(=O)C(C)(C)OC(=O)Nc2ccc(-c3ncn(-c4ccc(OC(F)(F)F)cc4)n3)cc2)n1 [Compound 7]	B (Less than 80)	B (Less than 50)	B (Less than 50)

— US8674109B2, “Pesticidal compositions” (Dow AgroSciences, LLC., priority 2009, dated 2014)
